The record followed here is patent US10759751B2, “Substituted spirocyclohexanes as muscarinic M1 receptor and/or M4 receptor agonists” (Heptares Therapeutics Limited, priority 2016, dated 2020).

Assay [1] has as its target T1, human muscarinic M1 receptor (Homo sapiens, UniProt P11229).
T1 sequence (P11229 1-460): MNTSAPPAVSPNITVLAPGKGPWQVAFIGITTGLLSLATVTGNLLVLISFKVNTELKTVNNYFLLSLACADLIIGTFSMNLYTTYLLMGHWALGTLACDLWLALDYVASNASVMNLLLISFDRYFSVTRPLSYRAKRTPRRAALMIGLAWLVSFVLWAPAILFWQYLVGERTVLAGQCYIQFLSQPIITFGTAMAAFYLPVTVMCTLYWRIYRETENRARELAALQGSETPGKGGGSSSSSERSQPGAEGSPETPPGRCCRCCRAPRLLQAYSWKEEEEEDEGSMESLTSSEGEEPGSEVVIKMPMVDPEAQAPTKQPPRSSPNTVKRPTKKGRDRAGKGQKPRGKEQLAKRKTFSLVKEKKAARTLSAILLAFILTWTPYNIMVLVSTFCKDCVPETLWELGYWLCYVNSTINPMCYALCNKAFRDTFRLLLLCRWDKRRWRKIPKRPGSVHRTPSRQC
The experiment in a line: Alphascreen Surefire phospho-ERK1/2 functional assay, M1. It counts as cell-based. Particulars: for M1 % Emax cf. ACh / EC50: CHO cells stably expressing human M1; for M1 % Emax cf. ACh / Emax: Emax relative to ACh; for EC50: phospho-ERK1/2, read-out: pEC50 M1 (converted); for Emax: CHO, read-out: M1 % Emax cf. ACh, CHO cells stably expressing human M1. As to the method:
(§1) Functional assays were performed using the Alphascreen Surefire phospho-ERK1/2 assay (Crouch & Osmond, Comb. Chem. High Throughput Screen, 2008). ERK1/2 phosphorylation is a downstream consequence of both Gq/11 and Gi/o protein coupled receptor activation, making it highly suitable for the assessment of M1, M3 (Gq/11 coupled) and M2, M4 receptors (Gi/o coupled), rather than using different assay formats for different receptor subtypes. CHO cells stably expressing the human muscarinic M1, M2, M3 or M4 receptor were plated (25K/well) onto 96-well tissue culture plates in MEM-alpha+10% dialysed FBS. Once adhered, cells were serum-starved overnight. Agonist stimulation was performed by the addition of 5 μL agonist to the cells for 5 min (37° C.). Media was removed and 50 μL of lysis buffer added. After 15 min, a 4 μL sample was transferred to 384-well plate and 7 μL of detection mixture added. Plates were incubated for 2 h with gentle agitation in the dark and then read on a PHERAstar plate reader.
(§2) pEC50 and Emax figures were calculated from the resulting data for each receptor subtype.
On the technique in general: Alpha assays give light when donor and acceptor beads are brought close together.

Assay [2] has as its target T2, human muscarinic M4 receptor (Homo sapiens, UniProt P08173).
T2 construct: expressed in transfected cells
T2 sequence (P08173 1-479): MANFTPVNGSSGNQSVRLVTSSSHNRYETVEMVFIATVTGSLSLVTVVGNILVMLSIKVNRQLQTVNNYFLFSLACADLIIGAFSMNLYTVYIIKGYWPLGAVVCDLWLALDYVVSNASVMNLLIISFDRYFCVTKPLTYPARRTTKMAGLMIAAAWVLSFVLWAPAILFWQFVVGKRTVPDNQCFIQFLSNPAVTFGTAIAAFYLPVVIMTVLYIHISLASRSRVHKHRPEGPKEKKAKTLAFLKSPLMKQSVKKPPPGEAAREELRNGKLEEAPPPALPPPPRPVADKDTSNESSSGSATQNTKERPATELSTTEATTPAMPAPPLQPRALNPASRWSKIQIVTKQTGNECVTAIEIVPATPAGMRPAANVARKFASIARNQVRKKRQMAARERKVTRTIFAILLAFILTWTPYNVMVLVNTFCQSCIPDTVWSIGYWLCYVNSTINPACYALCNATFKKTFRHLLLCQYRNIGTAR
The experiment in a line: Alphascreen Surefire phospho-ERK1/2 functional assay, M4. It counts as cell-based. Particulars: for M4 % Emax cf. ACh / EC50: CHO cells stably expressing human M4; for M4 % Emax cf. ACh / Emax: Emax relative to ACh; for EC50: phospho-ERK1/2, read-out: pEC50 M4 (converted); for Emax: CHO, read-out: M4 % Emax cf. ACh, CHO cells stably expressing human M4. As to the method:
as §1, §2

In general, Emax refers to the greatest response seen or fitted, relative to the assay's reference.

Some results are limits rather than exact numbers.

Regarding `CCOC(=O)NC1CCN(C2CCC3(CC2)C(=O)Nc2ccccc23)CC1` (single isomer, unassigned) [7-1 isomer 2], in assay [1], the “M1 % Emax cf. ACh” value worked out at 68% and the EC50 was 490 nM. For the same compound, in assay [2], the “M4 % Emax cf. ACh” value turned out to be 20% and the EC50 was 282 nM.

With `CCOC(=O)N[C@H]1CCN(C2CCC3(CC2)C(=O)Nc2ccc(OC)nc23)C1` (single isomer, unassigned) [2-20 isomer 1], in assay [1], the EC50 is 372 nM and the Emax was 32%. Further, in assay [2], the EC50 was above 20000 nM and the Emax amounted to 16%.

Consider `CCOC(=O)N[C@H]1CCN(C2CCC3(CC2)C(=O)Nc2cc(OC)ccc23)C1` (single isomer, unassigned) [2-9 isomer 1], for which, in assay [1], the EC50 is 282 nM and the Emax worked out at 77%. For the same compound, in assay [2], the EC50 was above 20000 nM and the Emax stood at 51%.

Regarding `Cc1ccc(C2(C#N)CCC(N3CCC4(CC(c5nc(C)no5)C4)C3)CC2)nc1` (single isomer, unassigned) [21-5 Isomer 2], in assay [1], the “M1 % Emax cf. ACh” value is given as 82% and the EC50 was 14500 nM. In assay [2], the “M4 % Emax cf. ACh” value was 51% and the EC50 was 1260 nM.

Turning to `CCOC(=O)N1CCCN(C2CCC3(CC2)C(=O)Nc2cc(C#N)ccc23)CC1` (single isomer, unassigned) [4-13 isomer 2], in assay [1], the EC50 was 955 nM and the Emax worked out at 38%. In assay [2], the EC50 was 347 nM and the Emax turned out to be 39%.

Regarding `CCOC(=O)N(C)[C@@H]1CCN(C2CCC3(CC2)C(=O)Nc2cccnc23)C1` (single isomer, unassigned) [2-21 isomer 2], in assay [1], the EC50 was 468 nM and the Emax came out at 58%. In assay [2], the EC50 is 245 nM and the Emax was determined as 86%.

Regarding `Cc1ccc(C2(C#N)CCC(N3CCC4(CC(c5nc(C)no5)C4)C3)CC2)nc1` (single isomer, unassigned) [21-5 Isomer 1], in assay [1], the “M1 % Emax cf. ACh” value came out at 18% and the EC50 is above 20000 nM. In assay [2], the EC50 was 1070 nM and the Emax is 55%.

With `CCOC(=O)NC1CCN(C2CCC3(CC2)C(=O)Nc2ccccc23)CC1` (single isomer, unassigned) [7-1 isomer 1], in assay [1], the “M1 % Emax cf. ACh” value came to 112% and the EC50 is 257 nM. For the same compound, in assay [2], the EC50 is 158 nM and the Emax turned out to be 26%.

Consider `CCOC(=O)N1CC2(CCN(C3CCC4(CC3)C(=O)Nc3ccccc34)C2)C1` (mixture of isomers) [10-1 mixture of isomers], for which the EC50 is 38.9 nM in assay [1] and above 20000 nM in assay [2]. Moreover, the Emax in assay [1] came out at 39%; in assay [2], 8%.

Consider `CCOC(=O)N1CCCN(C2CCC3(CC2)C(=O)Nc2ccc(C#N)cc23)CC1` (single isomer, unassigned) [4-14 isomer 1], for which, in assay [1], the EC50 was 977 nM and the Emax is 76%. Also, in assay [2], the EC50 is above 20000 nM and the Emax worked out at 24%.

Regarding `Cc1ccc(C2(C#N)CCC(N[C@@H]3CC[C@H](c4nc(C(F)(F)F)no4)C3)CC2)nc1` (single isomer, unassigned) [28-2 Isomer 2], in assay [1], the EC50 is 3470 nM and the Emax came out at 40%. In assay [2], the EC50 was 955 nM and the Emax was determined as 55%.

Take `Cc1noc(C2CC3(CCN(C4CCC(C#N)(c5ccc(F)cn5)CC4)C3)C2)n1` (single isomer, unassigned) [21-3 Isomer 3]: in assay [1], the “M1 % Emax cf. ACh” value was 51% and the EC50 is 562 nM. For the same compound, in assay [2], the “M4 % Emax cf. ACh” value is given as 15% and the EC50 is above 20000 nM.

Turning to `CCOC(=O)N1CCCN(C2CCC3(CC2)C(=O)Nc2ccc(OC)nc23)CC1` (single isomer, unassigned) [4-24 isomer 1], in assay [1], the EC50 is 813 nM and the Emax is 75%. Besides, in assay [2], the EC50 was 316 nM and the Emax came to 61%.

Take `CCOC(=O)N1CCCN(C2CCC3(CC2)CN(S(C)(=O)=O)c2ncccc23)CC1` (single isomer, unassigned) [4-19 isomer 1]: the EC50 in assay [1] was 6760 nM; in assay [2], 324 nM. Further, the Emax in assay [1] came to 104%; in assay [2], 97%.

Take `CCOC(=O)N1CCCN(C2CCC3(CC2)C(=O)Nc2cc(C)ccc23)CC1` (single isomer, unassigned) [4-6 isomer 1]: in assay [1], the “M1 % Emax cf. ACh” value was 85% and the EC50 was 575 nM. Further, in assay [2], the “M4 % Emax cf. ACh” value stood at 26% and the EC50 was 3240 nM.

On to `CCOC(=O)N[C@@H]1CCN(C2CCC3(CC2)C(=O)Nc2ccccc23)C1` (single isomer, unassigned) [2-2 isomer 1], for which the EC50 in assay [1] was 158 nM; in assay [2], 871 nM. Besides, the Emax in assay [1] was found to be 103%; in assay [2], 84%.

Regarding `CCOC(=O)N1CCCN(C2CCC3(CC2)C(=O)Nc2ncc(OC)cc23)CC1` (single isomer, unassigned) [4-17 isomer 2], the EC50 in assay [1] is 437 nM; in assay [2] it was above 20000 nM. In addition, the Emax in assay [1] was 89%; in assay [2], 19%.

In the case of `CCOC(=O)N1CCCN(C2CCC3(CC2)C(=O)Nc2ncc(Cl)cc23)CC1` (single isomer, unassigned) [4-16 isomer 1], in assay [1], the EC50 is 891 nM and the Emax amounted to 60%. For the same compound, in assay [2], the EC50 is above 20000 nM and the Emax was 5%.

For `CCOC(=O)N[C@@H]1CCN(C2CCC(C#N)(c3cccc(F)c3)CC2)C1` (single isomer, unassigned) [1-6 Isomer 2], in assay [1], the EC50 was 229 nM and the Emax was determined as 116%. In assay [2], the EC50 is 1780 nM and the Emax came to 49%.

On to `N#CC1(c2ccc(F)cn2)CCC(N[C@@H]2CC[C@H](c3nc(C(F)(F)F)no3)C2)CC1` (single isomer, unassigned) [28-1 Isomer 2], for which, in assay [1], the EC50 is 977 nM and the Emax was 59%. In addition, in assay [2], the EC50 is 832 nM and the Emax was 45%.

Take `CCOC(=O)N1CCCN(C2CCC3(CC2)C(=O)Nc2cccc(C)c23)CC1` (single isomer, unassigned) [4-8 isomer 1]: in assay [1], the “M1 % Emax cf. ACh” value worked out at 67% and the EC50 was 1100 nM. Moreover, in assay [2], the “M4 % Emax cf. ACh” value is 52% and the EC50 is 380 nM.

In the case of `CCOC(=O)N[C@H]1CCN(C2CCC3(CC2)C(=O)Nc2cnc(OC)cc23)C1` (single isomer, unassigned) [2-19 isomer 1], the EC50 was 2090 nM in assay [1] and above 20000 nM in assay [2]. The Emax in assay [1] is 63%; in assay [2] it was 19%.

Regarding `COc1ccc(C2(C#N)CCC(N3CCC4(CC(c5nc(C)no5)C4)C3)CC2)nc1` (single isomer, unassigned) [21-4 Isomer 4], in assay [1], the EC50 is 2140 nM and the Emax stood at 47%. Moreover, in assay [2], the EC50 was 309 nM and the Emax stood at 68%.

Consider `CCOC(=O)N[C@H]1CCN(C2CCC(C#N)(c3ccc(Cl)cn3)CC2)C1` (single isomer, unassigned) [1-15 Isomer 2], for which the EC50 in assay [1] was 269 nM; in assay [2] it was above 20000 nM. Also, the Emax was found to be 39% in assay [1] and 7% in assay [2].

On to `COc1ccc2c(c1)C1(CCC(N3CCC4(CC(c5nc(C)no5)C4)C3)CC1)C(=O)N2` (single isomer, unassigned) [26-2 Isomer 3], for which, in assay [1], the “M1 % Emax cf. ACh” value was determined as 51% and the EC50 was 224 nM. In addition, in assay [2], the “M4 % Emax cf. ACh” value turned out to be 14% and the EC50 is above 20000 nM.
